Measured values reported in paper PMC8406298, “Discovery of Fungus-Specific Targets and Inhibitors Using Chemical Phenotyping of Pathogenic Spore Germination” (mBio, 2021).
Several values for one entry are separate records, joined by “and”; a condition that tells them apart may be missing. Equal values may be shown once. Read-outs that look alike come from different tables or passages of the source.

Experiments:
[1] = system: normal human dermal fibroblasts (NHDF) cells; assay: Fibroblast cytotoxicity (CellTiter-Glo); assay type: cell-based; conditions: at concentrations as high as 80 μM; dose-response 0.5 to 80 μM
How it was run: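 Normal human dermal fibroblasts, 1 × 10^3 per well, exposed to compounds at 10 μM for 72 h at 37°C. Viability read as ATP-dependent CellTiter-Glo luminescence. Dose-response runs titrated compounds from 80 μM to 0.5 μM in duplicate.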

Cryptococcus spores = assay: Quantitative germination assay (QGA), automated microscopy of spore germination; assay type: cell-based, Cryptococcus neoformans serotype D (deneoformans); conditions: for germination inhibition phenotype (chemical phenotype) in QGA: at phenotypic concentration
Method: In this automated microscopy-based assay, germination progression of spores is monitored as a function of changes in cell morphology over time (spores are small and oval; yeast are large and circular). Individual spores in a population (∼1 × 10^4 per sample) are measured to determine size (area) and shape (aspect ratio) from the onset of germination, and the data are collected for each cell over the time of germination (Fig. 1A).
Germination assays were modified from those described by Barkal et al. to introduce automation, increase throughput, and refine assay consistency ([12]). Briefly, 384-well plates (Thermo Scientific 142762) were loaded with 10^5 spores per well, and at 0 h, synthetic medium plus 2% dextrose (SD medium) containing the compounds of interest was added to the sample (final volume of 40 μl). All compounds were tested initially at 80 μM; however, concentrations were changed on a case-by-case basis for subsequent experiments. All assays and controls were performed with a final concentration of 0.8% DMSO (the compound solvent) unless specified otherwise. Spores were germinated at 30°C in a humidified chamber, and the same ∼5 × 10^3 cells were monitored every 2 h for 16 h. Imaging was performed on a Ti2 Nikon microscope, and each condition was visualized in a minimum of two individual wells with three fields of view acquired from each well. All images were analyzed as described previously based on cell shape and size using ImageJ. The population ratios of spores, intermediates, and yeast were determined. Error bars in plots are based on the variation among all fields of view acquired. Level of germination was determined by quantifying the decrease in the proportion of spores in a population, and rates were quantified by determining the change in this proportion over time. For all two-dimensional histograms, the x axis represents area from 0 μm^2 to 25 μm^2, and the y axis represents the aspect ratio from 0.4 to 1.
Cycloheximide (0.078 μM to 80 μM) (Dot Scientific, Inc. DSC81040-1), G418 (1.6 mM) (Fisher Scientific AAJ6267106), and puromycin (20 mM) (Dot Scientific, Inc. DSP33020-0.025) were tested with no DMSO (all were water soluble), whereas anisomycin (62.5 μM) (Sigma-Aldrich A9789-5MG) was tested in 2.5% DMSO.
Furcarbanil (80 μM) (Sigma-Aldrich T313122), rotenone (10 μM) (Fisher Scientific 501687383), and antimycin A (2.5 μM) (Santa Cruz Biotechnology, Inc. sc-202467A) were all tested in 0.8% DMSO, and TTFA (200 μM) (Sigma-Aldrich 88300-5G) was tested in 3% DMSO.

SMILES	germination inhibition phenotype (chemical phenotype) in QGA (Cryptococcus spores)	phenotypic concentration (concentration showing the germination phenotype in QGA) (Cryptococcus spores) [µM]	other results
Cc1nc(NCc2ccccc2)c2ccsc2n1 [A5]			cytotoxicity against fibroblasts [1]: < 20%; inhibition at 5 µM (Cryptococcus spores; Cryptococcus, at 5 μM): > 80%
COc1ccc(SCCCC(=O)Nc2ncnc3sccc23)cc1 [A8]	asynchrony		
CCc1ccccc1NC(=O)c1cc(C)oc1C [B1]		80	
CN[C@@H]1[C@@H](O)[C@@H](O[C@@H]2[C@@H](O)[C@H](O[C@H]3O[C@H]([C@@H](C)O)[C@@H](O)[C@H](O)[C@H]3N)[C@@H](N)C[C@H]2N)OC[C@]1(C)O [Geneticin, reference compound]	slow-down		
CC(C)(C)c1ccc(-c2csc(N)n2)cc1 [PubChem CID 673711]	bimodal	5	
Cc1nc(NC(=O)CCc2ccccc2)sc1C [PubChem CID 733834]	morphological variability	40	
Cc1ccccc1OCCn1cnc2ccccc21 [PubChem CID 749608]	slow down	10	
CCc1ccc2nc(N)sc2c1 [PubChem CID 773093]	slow end	5	
Nc1nc(-c2ccc(Oc3ccccc3)cc2)cs1 [PubChem CID 780598]	bimodal	20	
Cc1ccc(OCCn2c(C)nc3ccccc32)cc1 [PubChem CID 790960]	slow down	80	
Nc1nc(COc2ccc3ccccc3c2)cs1 [PubChem CID 973573]	asynchrony	10	
Cc1ccccc1OCCSCc1nc2ccccc2[nH]1 [PubChem CID 1589778]	slow down	80	
Clc1ccc(OCCSCc2nc3ccccc3[nH]2)cc1 [PubChem CID 1589789]	slow down	20	
CCCOc1ccc(CSc2nc3ccccc3[nH]2)cc1 [PubChem CID 1653621]	slow down	80	
c1ccc(OCCCCSc2nc3ccccc3[nH]2)cc1 [PubChem CID 1653635]	slow down	80	
Cc1cc(C)c2sc(NN)nc2c1 [PubChem CID 2049855]	combination of the “morphological variability” and the “slow end” phenotypes		phenotypic concentration (concentration showing the germination phenotype in QGA) (Cryptococcus spores; listed as G2): 20 µM and 40 µM
CCCCSc1nc2ccc(C)cc2[nH]1 [PubChem CID 2129690]	slow down	80	
NNc1nc2cc3c(cc2s1)OCCO3 [PubChem CID 2771030]			germination inhibition phenotype in QGA (Cryptococcus spores; at 2.5 µM): bimodal; germination inhibition phenotype in QGA (Cryptococcus spores; at higher concentrations (5 µM)): combination phenotype of “bimodal” and “slow end”; phenotypic concentration (concentration showing the germination phenotype in QGA) (Cryptococcus spores; listed as G3): 2.5 µM and 5 µM
ClC1(Cl)CC1Cn1cnc2ccccc21 (stereo not drawn) [PubChem CID 2936975]	slow down	40	

SMILES	germination inhibition phenotype (chemical phenotype) in QGA (Cryptococcus spores)	phenotypic concentration (concentration showing the germination phenotype in QGA) (Cryptococcus spores) [µM]	other results
CCn1c(CSc2ccccc2)nc2ccccc21 [PubChem CID 2992099]	slow down	80	
COc1cccc2cc(-c3csc(NN=C4CCN(C)CC4)n3)c(=O)oc12 [PubChem CID 4913014]	asynchrony	20	
COc1ccc(/C=C/c2nc3ccccc3[nH]2)cc1 [PubChem CID 5769808]	slow down	20	
C/C=C/c1ccc(OCCn2cnc3ccccc32)c(OC)c1 [PubChem CID 5769972]	slow down	10	
O=C(Nc1nc2c(Br)cccc2s1)C1CC1 [PubChem CID 7202929]	asynchrony	10	
Cc1ccc(-c2nnc(Cn3cnc4ccccc43)o2)cc1 [PubChem CID 16456942]	slow down	5	
O=C(NC1CCCC1)c1csc(Nc2ccccc2)n1 [PubChem CID 30860168]	asynchrony	10	
CN(C)CCN(C(=O)c1c[nH]c2ccccc12)c1nc2ccc(OC(F)(F)F)cc2s1.Cl [PubChem CID 71782913]	asynchrony	20	
O=C(c1cc(-c2ccco2)on1)N1CCC(c2cccs2)CC1 [PubChem CID 71786870]	asynchrony	40	
O=C(CSCc1ccccc1)N1CCC(c2cccs2)CC1 [PubChem CID 71786876]	asynchrony	80	
O=C(CCSc1ccccc1)N1CCC(c2cccs2)CC1 [PubChem CID 71786877]	asynchrony	80	
O=C(CSCc1ccccc1)N1CCC(c2ccsc2)CC1 [PubChem CID 71786985]	asynchrony	80	
O=C(CCc1ccccc1Br)N1CCC(c2cccs2)CC1 [PubChem CID 71807060]	asynchrony	40	
O=C(CCc1ccccc1Br)N1CCC(c2ccsc2)CC1 [PubChem CID 71807075]	asynchrony	40	
O=C(NCc1ccnc(-c2cccs2)c1)c1nc2ccccc2s1 [PubChem CID 91630328]	asynchrony	40	
COc1ccc(C[C@H]2NC[C@H](O)[C@H]2OC(C)=O)cc1 [anisomycin, reference compound]	slow-down		
CCCCCC[C@H]1C(=O)O[C@H](C)[C@H](NC(=O)c2cccc(NC=O)c2O)C(=O)O[C@@H](C)[C@@H]1OC(=O)CC(C)C [antimycin A, reference compound]	asynchrony	2.5	
COc1ccc(C[C@H](N)C(=O)N[C@H]2[C@@H](O)[C@H](n3cnc4c(N(C)C)ncnc43)O[C@@H]2CO)cc1 [puromycin, reference compound]	slow-down		
C=C(C)[C@H]1Cc2c(ccc3c2O[C@@H]2COc4cc(OC)c(OC)cc4[C@@H]2C3=O)O1 [rotenone, reference compound]	asynchrony	10	
